# Reference: US6670374B1 (priority 2002, dated 2003)
# “Also recorded” adds a separate entry of the source.
# Experiments:
# [1] = test system: E. coli O157:H7 strain 86-24; parameters: species or system piglets; conditions: in vivo
# [2] = in vivo
smiles,measurement,setting,value
O[C@H]1[C@H]2[C@H](O)CCCN2C[C@H]1O [swainsonine],progression and severity of disease / outcome at 68 h post challenge,[1],"progression of disease was less rapid and for all except one, much less severe; also recorded: Two of the swainsonine-treated pigs were recovering from the disease by 68 h post challenge"
same,adverse effects,[2],no adverse effects
same,lowest concentration at which a protective effect from co-incubation was observed,Vero cells,0.012 μg/well
same,toxic effects in swainsonine control wells,Vero cells,No toxic effects were observed
